Assay results taken from US20120082677A1, “COMPOSITIONS FOR THE TREATMENT OF HCV AND HBV” (priority 2010, published 2012).

How the values were obtained:
[1] = cited from earlier work
[2] = Experiment 7 (second): injection in white mice for about 15 days; format: in vivo; conditions: 5 per group, injected for about 15 days
Excerpt: Experimental animals: We classified 20 white mice in 4 groups every group has 5 mice.

## NC[C@H]1CC[C@H](C(=O)O)CC1 [tranexamic acid]
[1]; absorption via the GIT
  time of peak plasma concentration: 2 h
[1]; chemical part
  excretion: excreted in the urine mainly as unchanged drug
[1]; in vivo
  protein binding: very low
[1]; via the GIT
  absorption: easily absorbed via the GIT
[2]
  survival of the mice: still alive
